Measured values published in paper PMC10126150 (2023).

Assays:
Assay in all cases: Cy3/quencher fluorescence plate reader
Settings in all cases: 120 mM Na+, 5 mM K+, 1 mM Mg2+, 1 mM Ca2+; 20 mM Tris-HCl, 25 °C; affinity similar to glucose
[1] = system: glu-3 ADS construct (DNA, aptamer, boronic acid-modified U (Z, T in the source) at 5,7,8,12,15,19,24,26 of strand 1 (MS of Bio-NNGmin: seven of eight coupled)) CCCGTGTTAGATAGTAAGTGCAATCTCGGCTTTCTGTCTCTTATACACATCTGACGCTGCCGACGA/TCGTCGGCAGCGTCAGATGTGTATAAGAGACAGTTTTTTTTTTTTTTTTTTTTTTTTTTACCAGGAGCTC
[2] = system: glu-1 ADS construct (DNA, aptamer, boronic acid-modified U (Z, T in the source) at 5,7,8,12,15,19,24,26 of strand 1 (MS of Bio-NNGmin: seven of eight coupled)) CCCGTGTTAGATAGTAAGTGCAATCTCGGCTTTCTGTCTCTTATACACATCTGACGCTGCCGACGA/TCGTCGGCAGCGTCAGATGTGTATAAGAGACAGTTTTTTTTTTTTTTTTTTTTTTTTTTAGGGCAGGCTC
[3] = system: glu-2 ADS construct (DNA, aptamer, boronic acid-modified U (Z, T in the source) at 5,7,8,12,15,19,24,26 of strand 1 (MS of Bio-NNGmin: seven of eight coupled)) CCCGTGTTAGATAGTAAGTGCAATCTCGGCTTTCTGTCTCTTATACACATCTGACGCTGCCGACGA/TCGTCGGCAGCGTCAGATGTGTATAAGAGACAGTTTTTTTTTTTTTTTTTTTTTTTTTCAGGACAGGCTC
[4] = system: glu-4 ADS construct (DNA, aptamer, boronic acid-modified U (Z, T in the source) at 5,7,8,12,15,19,24,26 of strand 1 (MS of Bio-NNGmin: seven of eight coupled)) CCCGTGTTAGATAGTAAGTGCAATCTCGGCTTTCTGTCTCTTATACACATCTGACGCTGCCGACGA/TCGTCGGCAGCGTCAGATGTGTATAAGAGACAGTTTTTTTTTTTTTTTTTTTTTTTTTACCAGGAGCTTC

Measured: binding

OCC1(O)OC[C@@H](O)[C@@H](O)[C@@H]1O (stereo partly shown)
yes: all assays above
